Earlier results as cited in patent US20190381003A1, “PHARMACEUTICAL COMPOSITION FOR TREATMENT OF INFLAMMATORY EAR DISEASES, METHOD FOR PRODUCING SAME AND METHOD FOR TREATMENT USING SAME COMPOSITION” (LIMITED LIABILITY COMPANY "KONSORTSIUM-PIK", priority 2017, published 2019).

Tests used:
[1] = following oral administration

Compound | persistence of anaesthesia (following drug administration) [h] | analgesic effects, potency vs. lidocaine (vs. lidocaine) [fold] | analgesic effects, potency vs. procaine (vs. procaine) [fold] | time to maximal blood level [1] [min]
CCCNC(C)C(=O)Nc1c(C)csc1C(=O)OC (racemic) [Articaine, (RS)-Methyl 4-methyl-3-(2-propylaminopropanoylamino)thiophene-2-carboxylate] | 1 to 5 | 2 | 6 | 
Cc1c(C(C)C)c(=O)n(-c2ccccc2)n1C [Propyphenazone, 1,5-Dimethyl-2-phenyl-4-propan-2-yl-pyrazol-3-one] |  |  |  | ≤ 30
